Results reported in US20150065509A1 (priority 2012, published 2015).
Values after ≈ are worked out from the molar mass of the structure shown. Like-named read-outs stand apart in the source and are kept apart here.

Experiments:
[1] = target: dihydrofolate reductase (DHFR) (Bacillus anthracis, UniProt Q81R22); test: biochemical; assay type: biochemical, B. anthracis Sterne
B. anthracis Sterne = test: microbe, parasite or virus in culture; assay type: cell-based; details: for MIC: Bacillus anthracis, 16 h, read-out: MIC (Minimum Inhibitory Concentration)

Sequence of dihydrofolate reductase (DHFR) (Q81R22 1-162): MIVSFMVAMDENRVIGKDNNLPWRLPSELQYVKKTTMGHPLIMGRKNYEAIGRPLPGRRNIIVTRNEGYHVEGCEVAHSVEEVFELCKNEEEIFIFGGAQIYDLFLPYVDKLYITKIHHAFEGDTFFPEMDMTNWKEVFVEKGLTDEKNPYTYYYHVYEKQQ

COc1cc(Cc2c(C)nc(N)nc2N)cc(/C=C/C(=O)N2N=Cc3ccccc3C2C=C(C)C)c1OC (centres unmarked) [Compound 13, (E)-3-(5-((2,4-Diamino-6-methylpyrimidin-5-yl)methyl)-2,3-dimethoxyphenyl)-1-(isobutenylphthalazin-2(1H)-yl)prop-2-en-1-one]
IC50 ([1]; read-out: IC50): 0.102 µM
MIC (Minimum Inhibitory Concentration) (B. anthracis Sterne): 4000 µg/mL (≈ 7.8 mM)

CCCC1c2ccccc2C=NN1C(=O)/C=C/c1cc(Cc2c(N)nc(N)nc2CC)cc(OC)c1OC (centres unmarked) [Compound 11, (E)-3-(5-((2,4-Diamino-6-ethylpyrimidin-5-yl)methyl)-2,3-dimethoxyphenyl)-1-(propyl-phthalazin-2(1H)-yl)prop-2-en-1-one]
IC50 ([1]; read-out: IC50): 17.4 µM
MIC (Minimum Inhibitory Concentration) (B. anthracis Sterne): 4000 µg/mL (≈ 7.77 mM)

CCCc1nc(N)nc(N)c1Cc1cc(/C=C/C(=O)N2N=Cc3ccccc3C2C=C(C)C)c(OC)c(OC)c1 (centres unmarked) [Compound 15, (E)-3-(5-((2,4-Diamino-6-propylpyrimidin-5-yl)methyl)-2,3-dimethoxyphenyl)-1-(isobutenylphthalazin-2(1H)-yl)prop-2-en-1-one]
IC50 ([1]; read-out: IC50): 18 µM
MIC (Minimum Inhibitory Concentration) (B. anthracis Sterne): 2000 µg/mL (≈ 3.7 mM)

CCCC1c2ccccc2C=NN1C(=O)/C=C/c1cc(Cc2c(C)nc(N)nc2N)cc(OC)c1OC (centres unmarked) [Compound 10, (E)-3-(5-((2,4-Diamino-6-methylpyrimidin-5-yl)methyl)-2,3-dimethoxyphenyl)-1-(1-propyl-phthalazin-2(1H)-yl)prop-2-en-1-one]
melting point: 137 to 138 °C
IC50 [1]: 0.517 µM
MIC (B. anthracis Sterne): 8000 µg/mL (≈ 16 mM)

CCCc1nc(N)nc(N)c1Cc1cc(/C=C/C(=O)N2N=Cc3ccccc3C2CCC)c(OC)c(OC)c1 (centres unmarked) [Compound 12, (E)-3-(5-((2,4-Diamino-6-propylpyrimidin-5-yl)methyl)-2,3-dimethoxyphenyl)-1-(1-propyl-phthalazin-2(1H)-yl)prop-2-en-1-one]
melting point: 140 to 141 °C
IC50 [1]: 17.1 µM
MIC (B. anthracis Sterne): 1000 µg/mL (≈ 1.89 mM)

CCc1nc(N)nc(N)c1Cc1cc(/C=C/C(=O)N2N=Cc3ccccc3C2C=C(C)C)c(OC)c(OC)c1 (centres unmarked) [Compound 14, (E)-3-(5-((2,4-Diamino-6-ethylpyrimidin-5-yl)methyl)-2,3-dimethoxyphenyl)-1-(isobutenylphthalazin-2(1H)-yl)prop-2-en-1-one]
IC50 ([1]; read-out: IC50): 0.181 µM
MIC (Minimum Inhibitory Concentration) (B. anthracis Sterne): 4000 µg/mL (≈ 7.6 mM)
